Laboratory results published in ChEMBL document CHEMBL3232934, “Synthesis of thio-heterocyclic analogues from Baylis-Hillman bromides as potent cyclooxygenase-2 inhibitors” (Bioorg Med Chem Lett, 2014).

Tests used:
[1] = target: Prostaglandin G/H synthase 1 (Homo sapiens) (UniProt P23219); settings: at 100 µM;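 note: COX-1 enzyme inhibition, read out colorimetrically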
Description: Inhibition of COX1 (unknown origin) at 100 uM by colorimetric method

[2] = target: T1, Prostaglandin G/H synthase 2 (Homo sapiens, UniProt P35354); assay: Inhibition of COX2 (unknown origin) by colorimetric method
T1 sequence (P35354 whole entry): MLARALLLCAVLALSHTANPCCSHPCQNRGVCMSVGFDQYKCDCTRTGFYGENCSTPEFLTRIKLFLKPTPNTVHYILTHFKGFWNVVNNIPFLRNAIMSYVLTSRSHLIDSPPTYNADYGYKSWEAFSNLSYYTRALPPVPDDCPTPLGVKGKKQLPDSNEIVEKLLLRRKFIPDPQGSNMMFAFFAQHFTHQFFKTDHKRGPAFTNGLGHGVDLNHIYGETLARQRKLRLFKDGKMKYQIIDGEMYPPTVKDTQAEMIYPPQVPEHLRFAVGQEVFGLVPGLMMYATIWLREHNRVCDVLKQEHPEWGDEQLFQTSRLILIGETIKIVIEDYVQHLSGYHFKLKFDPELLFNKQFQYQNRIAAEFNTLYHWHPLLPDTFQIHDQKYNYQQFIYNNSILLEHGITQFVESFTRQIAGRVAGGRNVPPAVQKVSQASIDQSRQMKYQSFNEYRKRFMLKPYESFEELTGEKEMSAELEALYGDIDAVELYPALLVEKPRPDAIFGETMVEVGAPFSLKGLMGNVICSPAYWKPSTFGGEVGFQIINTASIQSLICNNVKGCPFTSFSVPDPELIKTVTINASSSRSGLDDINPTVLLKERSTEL

[3] = target: T2, Prostaglandin G/H synthase 2 (Homo sapiens) (UniProt P35354); settings: at 100 µM
T2 sequence (whole entry): T1 sequence (P35354 whole entry)
Description: Inhibition of COX2 (unknown origin) at 100 uM by colorimetric method

Chain of Prostaglandin G/H synthase 1 (Homo sapiens) (P23219 whole entry): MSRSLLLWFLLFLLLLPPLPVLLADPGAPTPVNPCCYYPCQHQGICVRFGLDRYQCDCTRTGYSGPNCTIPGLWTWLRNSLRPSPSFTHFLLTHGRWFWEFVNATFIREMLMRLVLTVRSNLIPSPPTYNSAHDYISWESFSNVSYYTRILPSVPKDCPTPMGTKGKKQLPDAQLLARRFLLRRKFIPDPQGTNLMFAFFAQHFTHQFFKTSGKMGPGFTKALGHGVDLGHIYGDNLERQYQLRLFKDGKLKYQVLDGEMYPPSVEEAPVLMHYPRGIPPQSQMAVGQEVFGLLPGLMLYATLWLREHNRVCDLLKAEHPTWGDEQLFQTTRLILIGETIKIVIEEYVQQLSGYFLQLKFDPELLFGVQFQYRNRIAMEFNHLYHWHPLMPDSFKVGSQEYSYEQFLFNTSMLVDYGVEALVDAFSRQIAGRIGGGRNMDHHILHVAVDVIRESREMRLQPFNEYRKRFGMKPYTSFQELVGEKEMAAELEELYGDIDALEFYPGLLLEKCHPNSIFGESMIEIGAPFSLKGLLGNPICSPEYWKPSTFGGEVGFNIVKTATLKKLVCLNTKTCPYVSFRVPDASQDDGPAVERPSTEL

| inhibition [1] [%] | IC50 [2] [µM] | inhibition [3] [%] | Structure (SMILES) |
| --- | --- | --- | --- |
| 47 | – | 81 | CCOC(=O)/C(=C/c1ccc(C(C)C)cc1)CSc1nc2ccccc2o1 |
| 44.1 | – | 77.4 | CCOC(=O)/C(=C/c1ccc(C(C)C)cc1)CSc1nc(C)cc(C)n1 |
| 51.4 | – | 77.5 | COC(=O)/C(=C/c1ccc(C(F)(F)F)cc1)CSc1nc2ccccc2s1 |
| 55.1 | – | 76.5 | CCOC(=O)/C(=C/c1ccc(CC)cc1)CSc1nc(C)cc(C)n1 |
| 24.4 | 5.88 | 78.6 | CCOC(=O)/C(=C/c1cccc(Cl)c1)CSc1nc(C)cc(C)n1 |
| 50.7 | – | 53.5 | COC(=O)/C(=C/c1ccc(Cl)cc1)CSc1nc(C)cc(C)n1 |
| 39 | 2.95 | 81.9 | COC(=O)/C(=C/c1ccc(C(F)(F)F)cc1)CSc1nc2ccccc2o1 |

The next lines start with the compound.

| Structure (SMILES) | inhibition [1] [%] | IC50 [2] [µM] | inhibition [3] [%] |
| --- | --- | --- | --- |
| COC(=O)/C(=C/c1ccc2ccccc2c1)CSc1nc2ccccc2s1 | 28.8 | 2.93 | 75.1 |
| COC(=O)/C(=C/c1ccc2ccccc2c1)CSc1nc2ccccc2o1 | 1 | 4.34 | 78.4 |
| CCOC(=O)/C(=C/c1ccc(Br)cc1)CSc1nc(C)cc(C)n1 | 38.3 | 3.17 | 78.5 |
| CCOC(=O)/C(=C/c1cccc(F)c1)CSc1nncn1C | 20.8 | 3.88 | 78.6 |
| CCc1ccc(/C=C(\CSc2nncn2C)C(=O)OC)cc1 | 57.2 | – | 62.4 |
| CCOC(=O)/C(=C/c1cccc(Cl)c1)CSc1nc2ccccc2o1 | 50 | – | 76.7 |
| CCOC(=O)/C(=C/c1ccc(Br)cc1)CSc1nc2ccccc2o1 | 54.3 | – | 64.7 |
| COC(=O)/C(=C/c1ccc(F)cc1)CSc1nc(C)cc(C)n1 | 50.7 | – | 71 |
| COC(=O)/C(=C/c1ccc(OC)cc1)CSc1nc2ccccc2o1 | 2 | 4.76 | 77.1 |
| COC(=O)/C(=C/c1ccc(Cl)cc1)CSc1nc2ccccc2o1 | 42.7 | – | 74.8 |
| COC(=O)/C(=C/c1ccc2ccccc2c1)CSc1nc(C)cc(C)n1 | 46.3 | – | 73.5 |
| COC(=O)/C(=C/c1ccc(F)cc1)CSc1nc2ccccc2o1 | 47.8 | – | 72 |
| COC(=O)/C(=C/c1ccc(OC)cc1)CSc1nc(C)cc(C)n1 | 65.3 | – | 80.2 |
